Data on 6 compounds can be found in US9527876B2, “Prodrugs of bicyclic substituted pyrimidine type PDE-5 inhibitors” (Xuanzhu Pharma Co., Ltd., priority 2013, dated 2016).

In brackets after ≈: the same amount, converted by molar mass. Where two headings read alike, the source gives them in different places.

Data set [1] in a line: Rat pharmacokinetics after intragastric administration (LC-MS/MS of plasma). In kind it is in vivo, rats. Conditions: for F: rats, intragastric, absolute bioavailability. From the text: Instrument and equipment: API4000 LC-MS/MS
The target of another data set is T1, PDE-5 (Homo sapiens, UniProt O76074).
T1 construct: PDE-5 source, human platelets; from tissue; host or cells: human platelets
The data set is described as follows: Scintillation counter (Topcount) PDE-5 enzyme assay. The format is biochemical.

The conditions of data set [2]: rat, in vivo, iv, 1 mg/kg.
Procedure: (§1) Chromatographic column: Agilent XDBC18(2.1×50 mm, 5 μm)
(§2) Rat blood collection: animal was fixed, heated at tail with water-bath 10 min before each time point, about 200 μL of blood was collected from caudal vein, and the collected blood was placed in anticoagulative tube containing heparin sodium. Blood sample was centrifuged under 8000 rpm at 4° C. for 6 min to obtain plasma sample, and the plasma must be prepared within 30 min after blood collection. The plasma was stored in −80° C. refrigerator before test.
(§3) Experimental Method • 1) Take a sample to be tested from refrigerator (−80° C.), melt in situ at room temperature, then eddy for 5 min; • 2) Precisely move 20 μL of sample into 1.5 mL centrifuge tube; • 3) Add 200 μL of internal standard solution; • 4) Eddy for 3 min, then centrifuge for 5 min (12000 rpm); • 5) Precisely move 50 μL of supernatant and add into 150 μL of water, eddy for 3 min, and load to LC-MS/MS for analysis.
(§4) Test sample (plasma sample) concentrations were output by using Analyst 1.5.1 of AB Company. […] Mean values, standard deviation and variable coefficient (those directly outputed by Analyst 1.5.1 were not calculated), were calculated by Microsoft Excel. PK parameter was calculated by using software Pharsight Phoenix 6.2.
(§5) Wherein T1/2 represents half-life period; AUCinf represents area under drug-time curve 0→∞; CL represents clearance rate; Vss represents apparent volume of distribution; Cmax represents peak concentration of the compound in plasma; Tmax represents the time at which the compound reached the peak concentration; F % represents absolute bioavailability.
For data set [3] the following is noted: in vivo, background statement; cited from earlier work.
Another data set is described as follows: in vivo. To be noted: rat, iv, 2 mg/kg.
A short description of data set [4]: Solubility of Compound 1 in buffer solutions of different pH (visual observation). In kind it is physicochemical. Conditions: for solubility at 5 min: aqueous buffer, thermodynamic from solid. How it is done: 1. Method for preparing sample of Compound 1, 6 parts of test sample were precisely weighed, each was 2 mg and was separately added to 40 μL of buffer solutions of pH 4, pH 5, pH 6, pH 7, pH 8, pH 9, respectively. Jolted (ultrasonic treatment for 5 min) and detected by visual observation.
1.02 g of potassium hydrogen phthalate was weighed, added to 0.05 mL of 0.2 mol/L hydrochloric acid solution and an appropriate amount of water for dissolution, diluted by adding water to 100 mL, mixed homogeneously to obtain the subject solution.
1.02 g of potassium hydrogen phthalate was weighed, added to 11.3 mL of 0.2 mol/L sodium hydroxide solution and an appropriate amount of water for dissolution, diluted by adding water to 100 mL, mixed homogeneously to obtain the subject solution.
0.68 g of potassium dihydric phosphate was weighed, added to 2.8 mL of 0.2 mol/L sodium hydroxide solution and an appropriate amount of water for dissolution, diluted by adding water to 100 mL, mixed homogeneously to obtain the subject solution.
0.68 g of potassium dihydric phosphate was weighed, added to 14.55 mL of 0.2 mol/L sodium hydroxide solution and an appropriate amount of water for dissolution, diluted by adding water to 100 mL, mixed homogeneously to obtain the subject solution.
0.75 g of potassium chloride and 0.62 g of boric acid were weighed, added to 3.9 mL of 0.2 mol/L sodium hydroxide solution and an appropriate amount of water for dissolution, diluted by adding water to 200 mL, mixed homogeneously to obtain the subject solution.
0.75 g of potassium chloride and 0.62 g of boric acid were weighed, added to 20.8 mL of 0.2 mol/L sodium hydroxide solution and an appropriate amount of water for dissolution, diluted by adding water to 200 mL, mixed homogeneously to obtain the subject solution.

The nature of data set [5]: Rat pharmacokinetics after intravenous injection (LC-MS/MS of plasma). To be noted: for concentration at 0.083 h: 1 mg/kg, Concentration of Compound 1 in rat body.
Procedure: as §1, §2, §3, §4, §5
Data set [6] can be described thus: Solubility in ultrapure water (visual observation). In kind it is physicochemical. As to the method: Method for preparing samples of Compounds 4, 4-A, Compounds 9, and 9-B: 2 mg of test sample was taken, gradually added to ultrapure water, treated with ultrasound for 5 min each time until the sample was completely dissolved by visional observation.
Data set [7] can be described thus: Solubility of Compound Q in buffer solutions of different pH (HPLC). Conditions: aqueous buffer, thermodynamic from solid, 1 mg in 1 mL, read-out: Measured concentration (solubility). The format is physicochemical. How it is done: 2. Method for preparing sample of Compound Q, 4 parts of test sample were precisely weighed, each was 1 mg and was separately added to 1 mL of buffer solutions of pH 3, pH 5, pH 7, pH 9, treated with ultrasound for 5 min and filtered through 0.45 μm organic filtration membrane. The filter liquors were used as test sample solutions. 10 μL of each was injected into high performance liquid chromatograph, and peak areas were recorded.
4.88 mg of test sample was precisely weighed, placed in 10 mL volumetric flask, added to 1 mL of methanol for dissolution, then diluted with methanol to constant volume to obtain a solution containing 0.488 mg of control per 1 mL, which was used as mother liquor A. The mother liquor A was gradually diluted with methanol to obtain control solutions containing 0.0488 mg or 0.00976 mg per 1 mL.
Linear regression was performed by using control concentration (C) as abscissa, and peak area (Y) as ordinate so as to obtain a linear equation. The concentrations of test sample solutions were obtained by putting the peak areas of test sample solutions into the linear equation.
The control linear equation of Compound Q is: Y=24262C, correlation coefficient r=1.0000.
Instrument and equipment: Agilent 1200 HPLC
Chromatography column: YMC-Pack-Pro C18(150×4.6 mm, 5 μm)
Buffer solution: 0.02 mol/L ammonium dihydrogen phosphate (added 0.2% triethylamine, and regulated with phosphoric acid to pH=6.0)
Phase A: acetonitrile-buffer solution=[…], Phase B: acetonitrile-buffer solution=80:20
Mobile phase: Phase A: Phase B=65:35
Detection wavelength: 254 nm Sample size: 10 μL

The conditions of data set [8]: in human, background statement; cited from earlier work.

Procedure for in vivo: as §1, §2, §3, §4, §5

As usually defined, the IC50 is the point on the concentration scale where inhibition reaches its midpoint. A lower IC50 goes with greater potency. In general, Vd refers to the apparent volume that relates the amount in the body to the concentration in plasma or blood. Read a high Vd as extensive tissue distribution. One may read the clearance as the volume of plasma or blood freed of the substance per unit of time. Consider `COc1ccc(CN=c2[nH]c(N3CCC[C@H]3CO)ncc2C(=O)NCc2ncccn2)cc1Cl` [Avanafil], for which the F in data set [1] (dose 2 mg/kg (Table 5)) is 4.5%. This compound also returned an IC50 against PDE-5 of 3.1 nM. In addition, in data set [2], the AUCinf came out at 382 ng·h/mL and the T1/2 was 30 min. Besides, in data set [3], the half-life entry is given as “about 1.2 h”. In addition, in the data set “in vivo”, the Vd was found to be 3.56 L/kg and the clearance is 88.5 mL/min/kg.

As to `COc1ccc(CNc2nc(N3CC4CC4C3)ncc2C(=O)N[C@H]2CC[C@H](OP(=O)([O-])[O-])CC2)cc1Cl.[Na+].[Na+]` (stereo partly drawn) [Compound 1, N-trans-4-(2-(3-azabicyclo[3.1.0]hexan-3-yl)-4-(3-chloro-4-methoxybenzylamino)pyrimidine-5-carboxamido)cyclohexyl phosphate disodium salt], in data set [1] (after intragastric administration (PO), LC-MS/MS), the “Plasma detection of Compound 1 at each time point” value is on record as “not detected”. Besides, the solubility at 5 min is at least 50 mg/mL in [4] (buffer solution pH 5, 2 mg in 40 μL); at least 50 mg/mL in data set [4] (buffer solution pH 6, 2 mg in 40 μL); at least 50 mg/mL in data set [4] (buffer solution pH 7, 2 mg in 40 μL); at least 50 mg/mL in data set [4] (buffer solution pH 8, 2 mg in 40 μL); at least 50 mg/mL in data set [4] (buffer solution pH 9, 2 mg in 40 μL). For the same compound, the “Solubility, in words” value in data set [4] (buffer solution pH 4, compared with pH 5 to 9) is listed as “decreased”. The Phenomenon on dissolution result in data set [4] (buffer solution pH 4, 2 mg in 40 μL) was “precipitated after about 5 min”. Further, the “Plasma detection of Compound 1 at all other time points” value in data set [5] (after IV injection, time points other than 0.083 h, LC-MS/MS) was “could not be detected”. The concentration at 0.083 h in [5] (rat, plasma, iv, Mean, IV 1 mg/kg, mean of 3 rats) turned out to be 165 ng/mL; in data set [5] (rat, plasma, iv, Rat 1, IV 1 mg/kg, Rat 1), 162 ng/mL; in data set [5] (rat, plasma, iv, Rat 2, IV 1 mg/kg, Rat 2) it was 183 ng/mL; in [5] (rat, plasma, iv, Rat 3, IV 1 mg/kg, Rat 3), 151 ng/mL. The “Time of conversion of prodrug Compound 1 into Compound Q” value in [5] (rats, after IV injection) is recorded as at most 0.083 h.

On to `COc1ccc(CNc2nc(N3CCC4(CC4)C3)ncc2C(=O)N[C@H]2CC[C@H](OP(=O)([O-])[O-])CC2)cc1Cl.[Na+].[Na+]` [Compound 4, N-trans-4-(4-((3-chloro-4-methoxybenzyl)amino)-2-(5-azaspiro[2.4]heptan-5-yl)pyrimidine-5-carboxamido)cyclohexyl phosphate disodium salt], for which, in data set [6], the “Solubility in water relative to original drug Compound 4-A” value was determined as 2000 times. Further, in data set [6] (thermodynamic from solid, ultrasound 5 min), the solubility at 5 min is at least 200 mg/mL.

Compound `COc1ccc(CNc2nc(N3CC4CC4C3)ncc2C(=O)N[C@H]2CC[C@H](O)CC2)cc1C` (stereo partly drawn) [Compound 9-B, 2-(3-azabicyclo[3.1.0]hexan-3-yl)-N-(trans-4-hydroxycyclohexyl)-4-(4-methoxy-3-methylbenzylamino)pyrimidine-5-carboxamide] displayed a F in data set [1] (dose 5 mg/kg (Table 5)) of 65%. Also, in [5] (rat, plasma, iv, 2 mg/kg), the Vd turned out to be 4.48 L/kg and the clearance was 13 mL/min/kg.

In the case of `COc1ccc(CNc2nc(N3CC4CC4C3)ncc2C(=O)N[C@H]2CC[C@H](O)CC2)cc1Cl` (stereo partly drawn) [Compound Q, 2-(3-azabicyclo[3.1.0]hexan-3-yl)-4-(3-chloro-4-methoxybenzylamino)-N-(trans-4-hydroxycyclohexyl)pyrimidine-5-carboxamide], the solubility at 5 min in [7] (buffer solution pH 3) was 371 µg/mL (≈ 786 µM); in [7] (buffer solution pH 5) it was 0.276 µg/mL (≈ 0.585 µM); in [7] (buffer solution pH 7), 0.124 µg/mL (≈ 0.263 µM); in data set [7] (buffer solution pH 9), 0.128 µg/mL (≈ 0.271 µM).

Take `CN1CC(=O)N2[C@H](c3ccc4c(c3)OCO4)c3[nH]c4ccccc4c3C[C@@H]2C1=O` [Tadalafil]: the half-life entry in data set [8] is on record as “about 16 h”.
